Source: US20150148311A1, “NON-SYSTEMIC TGR5 AGONISTS” (Ardelyx, Inc., priority 2011, published 2015)

Tests used:
[1] = biological target: T1, human IBAT (Homo sapiens, UniProt Q12908); test: IBAT counter screen, [3H]taurocholic acid uptake in IBAT-transfected HEK293 cells; format: cell-based; details: for EC50: read-out: pEC50 human IBAT (converted)
T1 construct: expressed in transfected cells; host or cells: HEK293
T1 sequence (Q12908 1-348): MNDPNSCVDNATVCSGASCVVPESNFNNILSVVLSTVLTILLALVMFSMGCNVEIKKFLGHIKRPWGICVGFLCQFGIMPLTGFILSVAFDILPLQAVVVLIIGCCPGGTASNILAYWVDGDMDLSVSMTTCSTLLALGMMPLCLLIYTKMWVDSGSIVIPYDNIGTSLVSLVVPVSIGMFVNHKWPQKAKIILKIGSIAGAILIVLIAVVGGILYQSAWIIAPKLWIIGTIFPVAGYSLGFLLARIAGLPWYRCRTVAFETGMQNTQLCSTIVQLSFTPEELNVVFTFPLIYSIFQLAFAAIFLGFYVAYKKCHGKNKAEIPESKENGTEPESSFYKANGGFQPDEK
Procedure: Following a 40-min incubation, the solution was removed, and the cells were washed twice with uptake buffer. Cells were lysed by addition of 20 μL 0.1% Tween 80 followed by 100 μL scintillation fluid and counted using a TopCount (Perkin Elmer).

[2] = Compound concentration in gall bladder, LC-MS/MS, 8 h post dose; format: in vivo; details: 30 mg/kg; for concentration at 8 h: male, C57BL/6, mouse, with contents, mice, gallbladder homogenate, read-out: Mean Example Gallbladder Concentration; for Number of Mice with Gallbladder Concentration < LLOQ: mice below LLOQ / mice in group
Procedure: (§1) Eight hours later, each mouse was heavily anesthetized with isoflurane, the peritoneal cavity was opened and the gallbladder, with its entire contents, was carefully excised and weighed. Blood was collected from the left ventricle of the heart and processed to plasma in EDTA-coated tubes containing aprotinin and DPPIV inhibitor for measurement of total GLP-1 (K150FCC; Meso Scales Discovery, Gaithersburg Md.).
Compound concentrations in the gall bladder were determined as follows: each mouse was heavily anesthetized with isoflurane, the peritoneal cavity was opened and the gallbladder, with its entire contents, was carefully excised. After harvest, gall bladders were homogenized in 100 μL water using a micro-homogenizer. Samples of homogenate were diluted 1:5 in water and precipitated with three volumes of neat acetonitrile. After centrifugation, supernatants were analyzed by LC-MS/MS. The level of test compound present in gall bladder samples was interpolated from a standard curve for each individual compound prepared in a matrix of gallbladder homogenate from vehicle treated animals.

[3] = Compound plasma concentration, LC-MS/MS, 8 h post dose; format: in vivo; details: 30 mg/kg; for Number of Mice with Plasma Concentration < LLOQ: mice below LLOQ / mice in group; for concentration at 8 h: male, C57BL/6, mouse, mice, plasma, read-out: Mean Example Plasma Concentration
Procedure: as §1
Plasma samples were treated with acetonitrile containing an internal standard, precipitated proteins removed by centrifugation. Supernatants were analyzed by LC-MS/MS and compound concentrations were determined by interpolated from a standard curve prepared in plasma.

[4] = biological target: T2, human TGR5 (Homo sapiens, UniProt Q8TDU6); test: Cell-based TGR5 assay, HEK293 cells stably expressing human TGR5, cAMP by HTRF; details: pEC50 Human TGR5, HEK293 cells stably expressing human TGR5, 30 min at 37 C, 0.05 nM to 10 μM
T2 construct: expressed in transfected cells
T2 sequence (Q8TDU6 1-330): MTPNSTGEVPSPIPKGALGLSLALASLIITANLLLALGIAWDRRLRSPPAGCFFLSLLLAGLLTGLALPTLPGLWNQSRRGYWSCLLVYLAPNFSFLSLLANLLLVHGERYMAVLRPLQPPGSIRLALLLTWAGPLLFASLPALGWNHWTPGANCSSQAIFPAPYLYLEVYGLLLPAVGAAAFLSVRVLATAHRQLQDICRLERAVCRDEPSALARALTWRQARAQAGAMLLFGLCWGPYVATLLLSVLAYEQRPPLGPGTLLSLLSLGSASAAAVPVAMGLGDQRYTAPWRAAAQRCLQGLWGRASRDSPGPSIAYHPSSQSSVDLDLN
In short: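 cAMP HTRF read-out, converted to concentration via standard curve, after a 30 min, 37 °C compound exposure in HBSS with 10 mM HEPES pH 7.4 and 0.5 mM IBMX, compounds serially diluted 3-fold from 10 mM DMSO stock then 100-fold. Cells: stable human TGR5 HEK293, or NCI-H716 expressing TGR5 endogenously.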

Row | Structure (SMILES) | EC50 [1] | concentration at 8 h [2] | Number of Mice with Plasma Concentration < LLOQ [3] | Number of Mice with Gallbladder Concentration < LLOQ [2] | other results
1 | O=C([C@H]1CCCCN1Cc1cc(Cl)ccc1Cl)N1CCN(C2CC2)c2ccccc21 [Example 16, (R)-(4-cyclopropyl-3,4-dihydroquinoxaline-1(2H)-yl)(1-(2,5-dichlorobenzyl)piperidin-2-yl) methanone] | > 25.1 µM |  |  |  | 
2 | C[C@@]1(C(=O)N2CCN(C3CC3)c3ccccc32)CCCN1Cc1cc(Cl)ccc1Cl [Example 20, (S)-(4-cyclopropyl-3,4-dihydroquinoxaline-1(2H)-yl)(1-(2,5-dichlorobenzyl)-2-methylpyrrolidin-2-yl)methanone] | > 25.1 µM |  |  |  | 
3 | O=C(NCCCCc1cc(Cl)c(CN2CSC[C@H]2C(=O)N2CCN(C3CC3)c3ccccc32)cc1Cl)NC[C@@H](O)[C@H](O)[C@@H](O)[C@@H](O)CO [Example 177, 1-(4-(2,5-dichloro-4-(((R)-4-(4-cyclopropyl-1,2,3,4-tetrahydroquinoxaline-1-carbonyl)thiazolidin-3-yl)methyl)phenyl)butyl)-3-((2R,3S,4S,5S)-2,3,4,5,6-pentahydroxyhexyl)urea] |  | 100 nM |  |  | 
4 | O=C([C@@H]1C[C@H](O)CN1Cc1cc(Cl)ccc1Cl)N1CCN(C2CC2)c2ccccc21 [Example 6, (4-cyclopropyl-3,4-dihydroquinoxalin-1(2H)-yl)((2S,4S)-1-(2,5-dichlorobenzyl)-4-hydroxypyrrolidin-2-yl)methanone] | > 25.1 µM |  |  |  | 
5 | C[C@H](CCC(=O)O)[C@H]1CC[C@H]2[C@@H]3[C@H](O)C[C@@H]4C[C@H](O)CC[C@]4(C)[C@H]3CC[C@]12C [chenodeoxycholic acid, reference compound] |  |  |  |  | inhibition of uptake of [3H]taurocholic acid ([1]; IBAT-transfected HEK293 cells, potency similar to that reported by Craddock): inhibited uptake
6 | O=C([C@@H]1C[C@@H](O)CN1Cc1cc(Cl)ccc1Cl)N1CCN(C2CC2)c2ccccc21 [Example 2, (4-cyclopropyl-3,4-dihydroquinoxalin-1(2H)-yl)((2S,4R)-1-(2,5-dichlorobenzyl)-4-hydroxypyrrolidin-2-yl)methanone] | > 25.1 µM |  |  |  | 
7 | O=C(NC[C@H](O)[C@@H](O)[C@H](O)[C@H](O)CO)c1ccc(OCc2cc(Cl)c(CN3CSC[C@H]3C(=O)N3CCN(C4CC4)c4ccccc43)cc2Cl)nc1 [Example 285] |  |  | 2/8 | 0/8 | 
8 | O=C(NCCCCCc1cc(Cl)c(CN2CSC[C@H]2C(=O)N2CCN(C3CC3)c3ccccc32)cc1Cl)NCP(=O)(O)O [Example 283] |  | 3060 nM | 7/8 | 0/8 | concentration at 8 h [3]: 24.8 ng/mL; EC50 [4]: 0.126 to 1 µM
9 | C[C@@H](NC(=O)[C@@H](C)NC(=O)[C@@H](C)NC(=O)CCCCc1cc(Cl)c(CN2CSC[C@H]2C(=O)N2CCN(C3CC3)c3ccccc32)cc1Cl)C(=O)O [Example 227] |  | 1730 nM | 7/8 | 0/7 | concentration at 8 h [3]: 0.6 ng/mL; EC50 [4]: < 0.1 µM
10 | O=C([C@@H]1CCCN1Cc1cc(Cl)ccc1Cl)N1CCCc2ccccc21 [Example 10, (S)-(1-(2,5-dichlorobenzyl)pyrrolidin-2-yl)(3,4-dihydroquinolin-1(2H)-yl)methanone] | > 25.1 µM |  |  |  | 
11 | O=C([C@H]1CCCN1Cc1cc(Cl)ccc1Cl)N1CCN(C2CC2)c2ccccc21 [Example 15, (R)-(4-cyclopropyl-3,4-dihydroquinoxalin-1(2H)-yl)(1-(2,5-dichlorobenzyl)pyrrolidin-2-yl)methanone] | > 25.1 µM |  |  |  | 
12 | O=C(NCCCCCc1cc(Cl)c(CN2CSC[C@H]2C(=O)N2CCN(C3CC3)c3ccccc32)cc1Cl)N1CCN(CP(=O)(O)O)CC1 [Example 282] |  | 80 nM | 0/8 | 0/7 | concentration at 8 h [3]: 2.8 ng/mL; EC50 [4]: < 0.1 µM
13 | CN(C[C@H](O)[C@@H](O)[C@H](O)[C@H](O)CO)C(=O)CC[C@H](NC(=O)CCCCc1cc(Cl)c(CN2CSC[C@H]2C(=O)N2CCN(C3CC3)c3ccccc32)cc1Cl)C(=O)O [Example 278] |  | 3100 nM | 5/8 | 0/8 | concentration at 8 h [3]: 2.3 ng/mL; EC50 [4]: 0.126 to 1 µM
14 | CN(C[C@H](O)[C@@H](O)[C@@H](O)[C@H](O)CO)C(=O)CCc1cc(Cl)c(CN2CSC[C@H]2C(=O)N2CCN(C3CC3)c3ccccc32)cc1Cl [Example 98, 3-(2,5-dichloro-4-(((R)-4-(4-cyclopropyl-1,2,3,4-tetrahydroquinoxaline-1-carbonyl)thiazolidin-3-yl)methyl)phenyl)-N-methyl-N-((2S,3R,4S,5R)-2,3,4,5,6-pentahydroxyhexyl)propanamide] |  |  | 4/8 | 0/8 | 
15 | CN(C[C@@H](O)[C@H](O)[C@@H](O)[C@@H](O)CO)C(=O)NCCCCc1cc(Cl)c(CN2CSC[C@H]2C(=O)N2CCN(C3CC3)c3ccccc32)cc1Cl [Example 208] |  |  | 7/7 | 0/7 | concentration at 8 h [3]: < 0.5 ng/mL
16 | O=C([C@@H]1COCCN1Cc1cc(Cl)ccc1Cl)N1CCN(C2CC2)c2ccccc21 [Example 23, (S)-(4-cyclopropyl-3,4-dihydroquinoxaline-1(2H)-yl)(4-(2,5-dichlorobenzyl)morpholin-3-yl)methanone] | > 25.1 µM |  |  |  | 
17 | O=C([C@@H]1CCCN1Cc1cc(Cl)ccc1Cl)N1CCN(C2CC2)c2ccccc21 [Example 12, (S)-(4-cyclopropyl-3,4-dihydroquinoxalin-1(2H)-yl)(1-(2,5-dichlorobenzyl)pyrrolidin-2-yl)methanone] | > 25.1 µM |  |  |  | 
18 | CN(C[C@H](O)[C@@H](O)[C@@H](O)[C@H](O)CO)C(=O)CCCCc1cc(Cl)c(CN2CSC[C@H]2C(=O)N2CCN(C3CC3)c3ccccc32)cc1Cl [Example 239] |  | < 3 nM | 6/8 | 8/8 | concentration at 8 h [3]: 2 ng/mL
19 | O=C([C@@H]1CSCCN1Cc1cc(Cl)ccc1Cl)N1CCN(C2CC2)c2ccccc21 [Example 22, (R)-(4-cyclopropyl-3,4-dihydroquinoxaline-1(2H)-yl)(4-(2,5-dichlorobenzyl)thiomorpholin-3-yl)methanone] | > 25.1 µM |  |  |  | 
20 | O=C(CCc1cc(Cl)c(CN2CSC[C@H]2C(=O)N2CCN(C3CC3)c3ccccc32)cc1Cl)NC[C@H](O)[C@@H](O)C(O)[C@H](O)CO (stereo in doubt) [Example 97, 3-(2,5-dichloro-4-(((R)-4-(4-cyclopropyl-1,2,3,4-tetrahydroquinoxaline-1-carbonyl)thiazolidin-3-yl)methyl)phenyl)-N-((2S,3R,4R,5R)-2,3,4,5,6-pentahydroxyhexyl)propanamide] |  | 520 nM | 7/8 | 0/8 | 
21 | O=C([C@@H]1CCCCN1Cc1cc(Cl)ccc1Cl)N1CCN(C2CC2)c2ccccc21 [Example 14, (S)-(4-cyclopropyl-3,4-dihydroquinoxaline-1(2H)-yl)(1-(2,5-dichlorobenzyl)piperidin-2-yl) methanone] | > 25.1 µM |  |  |  | 
22 | CN(C[C@H](O)[C@@H](O)[C@H](O)[C@H](O)CO)C(=O)CCc1cc(Cl)c(CN2CSC[C@H]2C(=O)N2CCN(C3CC3)c3ccccc32)cc1Cl [Example 237] |  |  | 7/8 | 1/8 | 
